Molecular target: T1, PfPRMT5 (Plasmodium falciparum, UniProt Q8ID96)
T1 construct: gene PF3D7_1361000; protein A part cut by TEV, protein C tag kept; associated parasite proteins may co-purify
T1 sequence (Q8ID96 1-724): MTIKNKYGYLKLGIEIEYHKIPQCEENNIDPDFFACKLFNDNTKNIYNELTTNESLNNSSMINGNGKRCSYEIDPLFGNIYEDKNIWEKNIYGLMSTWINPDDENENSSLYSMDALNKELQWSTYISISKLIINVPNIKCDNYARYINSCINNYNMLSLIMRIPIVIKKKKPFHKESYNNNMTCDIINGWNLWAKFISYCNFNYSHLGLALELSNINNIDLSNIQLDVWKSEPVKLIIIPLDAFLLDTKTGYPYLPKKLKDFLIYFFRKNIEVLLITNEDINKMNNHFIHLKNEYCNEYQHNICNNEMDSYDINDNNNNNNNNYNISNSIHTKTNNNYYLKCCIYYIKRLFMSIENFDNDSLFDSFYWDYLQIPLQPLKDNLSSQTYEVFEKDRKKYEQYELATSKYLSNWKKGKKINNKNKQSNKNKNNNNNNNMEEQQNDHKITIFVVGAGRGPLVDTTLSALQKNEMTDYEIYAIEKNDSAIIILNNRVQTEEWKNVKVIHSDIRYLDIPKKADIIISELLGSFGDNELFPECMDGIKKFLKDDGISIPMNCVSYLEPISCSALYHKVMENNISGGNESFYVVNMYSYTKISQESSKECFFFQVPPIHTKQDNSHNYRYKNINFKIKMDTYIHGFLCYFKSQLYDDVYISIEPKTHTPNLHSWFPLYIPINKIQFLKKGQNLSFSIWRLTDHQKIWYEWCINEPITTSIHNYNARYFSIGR
Experiment: MTase-Glo luminescence methyltransferase assay
Type: biochemical
Conditions: 30 min pre-incubation at 37 °C, 115 µM PfPRMT5 as printed, 10 µM SAM, 0.1 µM human recombinant mononucleosomes, pH 8.0, 60 min

Nc1nc2cc(CC[C@H]3C[C@@H](n4ccc5c(N)ncnc54)[C@H](O)[C@@H]3O)ccc2cc1Br [onametostat]
% reduction of activity at 1:1 molar ratio PfPRMT5:onametostat: ~ 48%

Reference: paper PMC11459956, “Onametostat, a PfPRMT5 inhibitor, exhibits antimalarial activity to Plasmodium falciparum” (Antimicrobial Agents and Chemotherapy, 2024)
